In PubChem BioAssay AID1963965 (Molecular Pharmacology Branch, DTP, NCI, 2024):

System: 996289-038-R-J1-PDC spheroid viability
Experiment: Anticancer human tumor 996289-038-R-J1-PDC patient-derived colon adenocarcinoma cell line growth inhibition [PI3K]
Conditions: spheroids with HUVEC and MSC; for IC50: curve of first compound; for viability, T/C: stronger effect = lower value
From the text: Combinatorial screen of targeted agents with the PI3K inhibitors inavolisib, alpelisib, duvelisib, and copanlisib in multi-cell type tumor spheroids
A high-throughput screen of multi-cell type tumor spheroids was designed to identify active combinations of targeted small molecules and PI3K pathway inhibitors. Complex spheroids include a stromal component modeled by human endothelial cells (HUVEC) and fibroblasts modeled by human mesenchymal stem cells (MSCs). The concentration ranges selected for each drug and investigational agent were based upon clinically achievable concentrations if the clinical Cmax of the agent was known.
Compounds. The drugs and investigational agents: inavolisib (NSC800729), alpelisib (NSC765974), duvelisib (NSC772469), copanlisib (NSC816437), ipatasertib (NSC767898), afuresertib (NSC778305), talazoparib (NSC767125), sapanisertib (NSC764658), selumetinib (NSC741078), tovorafenib (DAY101, NSC766906), vemurafenib (NSC761431), ravoxertinib (NSC781343), sotorasib (NSC818433), MRTX1133 (NSC 836407), abemaciclib (NSC 768073), palbociclib (NSC758247), venetoclax (NSC 766270), SY5609 (NSC837396), enzalutamide (NSC755605), and darolutamide (NSC825331), were obtained from the National Cancer Institute (NCI) Developmental Therapeutics Program Chemical Repository. The FDA-approved anticancer drug set is available from the NCI Developmental Therapeutics Program. […] The stock solutions were prepared in dimethyl sulfoxide (DMSO, Sigma-Aldrich, St. Louis, MO, cat. D2650) at 800-fold the tested concentration and stored at -70 degrees C prior to their use. All drugs and investigational agents were tested over a range starting from a high concentration at or near the clinical Cmax and decreasing in half-log increments. If the clinical Cmax for an agent had not been determined, the highest concentration tested was 10 microM.
Cell Culture. All cells were maintained in an incubator at 37 degrees C and 5% CO2 with 95% humidity. The PDC lines were cultured according to standard operating procedures established by the NCI PDMR (https://pdmr.cancer.gov/sops/default.htm). All PDCs were thawed and cultured in Matrigel-coated flasks prepared with a working solution of 1X Ham's F-12 nutrient mix, without supplementation (Invitrogen, Waltham, MA, cat. 11765054), 100 U/mL penicillin-streptomycin (Invitrogen, cat. 15140122), and 2.5% Matrigel (Corning Inc., Corning, NY, cat. 354248) for the first three passages. The 354836-022-R-J1-PDC, 475296-252-R-J1-PDC, and 997726-040-R-J2-PDC lines were cultured in 6A media, which includes advanced DMEM/F-12 (Thermo Fisher Scientific, cat. 12634028), 10 mM HEPES (Thermo Fisher Scientific, cat. 15630080), 1X GlutaMAX supplement (Thermo Fisher Scientific, cat. 35050061), 0.1 mg/mL primocin (InvivoGen, San Diego, CA, cat. ant-pm-2), 10% defined fetal bovine serum, heat inactivated (HyClone Laboratories Inc., Logan, UT, cat. SH30070.03HI), 50% L-WRN conditioned media (ATCC, cat. CRL-3276), 1.25 mM N-Acetyl-L-cysteine (Sigma-Aldrich, cat. A9165), 10 mM nicotinamide (Sigma-Aldrich, cat. N0636), 1X B-27 supplement (Thermo Fisher Scientific, cat. 17504044), 1X N-2 supplement (Thermo Fisher Scientific, cat. 17502048), and 10 microM Y-27632 dihydrochloride (Tocris Bioscience, Bristol, United Kingdom, cat. 1254). The 624824-186-R-J2-PDC line was cultured in 6C/Colon 1B media, which includes all 6A media components plus 50 ng/mL human EGF recombinant protein (Thermo Fisher Scientific, cat. PHG0311). […]
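Also: spheroids exposed to compounds for seven days before viability read.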
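For viability, T/C in this document: luminescence used as a proxy for viable cell amount; percent viability relative to DMSO vehicle control as 100%.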

CCCS(=O)(=O)Nc1ccc(F)c(C(=O)c2c[nH]c3ncc(-c4ccc(Cl)cc4)cc23)c1F + CC(Nc1ccc2c(c1)OCCn1cc(N3C(=O)OCC3C(F)F)nc1-2)C(N)=O
IC50 (second compound 0.00316 µM): 5.89 µM | IC50 (second compound 0.01 µM): 6.12 µM | IC50 (second compound 0.0316 µM): 5.81 µM | IC50 (second compound 0.1 µM): 5.11 µM | IC50 (second compound 0.316 µM): 4.38 µM | IC50 (second compound 1 µM): 1.67 µM | viability, T/C (second compound 0.00316 µM, first compound 0.0316 µM): 108% | viability, T/C (second compound 0.00316 µM, first compound 0.1 µM): 89.7% | viability, T/C (second compound 0.00316 µM, first compound 0.316 µM): 86.3% | viability, T/C (second compound 0.00316 µM, first compound 1 µM): 96.7% | viability, T/C (second compound 0.00316 µM, first compound 3.16 µM): 83.4% | viability, T/C (second compound 0.00316 µM, first compound 10 µM): 21.2% | viability, T/C (second compound 0.01 µM, first compound 0.0316 µM): 101% | viability, T/C (second compound 0.01 µM, first compound 0.1 µM): 95.8% | viability, T/C (second compound 0.01 µM, first compound 0.316 µM): 97.8% | viability, T/C (second compound 0.01 µM, first compound 1 µM): 101% | viability, T/C (second compound 0.01 µM, first compound 3.16 µM): 88% | viability, T/C (second compound 0.01 µM, first compound 10 µM): 21.4% | viability, T/C (second compound 0.0316 µM, first compound 0.0316 µM): 95% | viability, T/C (second compound 0.0316 µM, first compound 0.1 µM): 98.5% | viability, T/C (second compound 0.0316 µM, first compound 0.316 µM): 96.6% | viability, T/C (second compound 0.0316 µM, first compound 1 µM): 99.4% | viability, T/C (second compound 0.0316 µM, first compound 3.16 µM): 82.5% | viability, T/C (second compound 0.0316 µM, first compound 10 µM): 20.6% | viability, T/C (second compound 0.1 µM, first compound 0.0316 µM): 72.4% | viability, T/C (second compound 0.1 µM, first compound 0.1 µM): 71.8% | viability, T/C (second compound 0.1 µM, first compound 0.316 µM): 74.6% | viability, T/C (second compound 0.1 µM, first compound 1 µM): 73.4% | viability, T/C (second compound 0.1 µM, first compound 3.16 µM): 75.8% | viability, T/C (second compound 0.1 µM, first compound 10 µM): 16.9% | viability, T/C (second compound 0.316 µM, first compound 0.0316 µM): 74.8% | viability, T/C (second compound 0.316 µM, first compound 0.1 µM): 74.3% | viability, T/C (second compound 0.316 µM, first compound 0.316 µM): 76.6% | viability, T/C (second compound 0.316 µM, first compound 1 µM): 68% | viability, T/C (second compound 0.316 µM, first compound 3.16 µM): 65.1% | viability, T/C (second compound 0.316 µM, first compound 10 µM): 15.1% | viability, T/C (second compound 1 µM, first compound 0.0316 µM): 63.1% | viability, T/C (second compound 1 µM, first compound 0.1 µM): 72.3% | viability, T/C (second compound 1 µM, first compound 0.316 µM): 61.7% | viability, T/C (second compound 1 µM, first compound 1 µM): 52.1% | viability, T/C (second compound 1 µM, first compound 3.16 µM): 44.9% | viability, T/C (second compound 1 µM, first compound 10 µM): 12.1%
